Measurements taken from patent publication US20130310454A1, “PHARMACEUTICAL COMPOSITION COMPRISING EXTRACT OF LONICERA JAPONICA FOR PREVENTION AND TREATMENT OF GASTROESOPHAGEAL REFLUX DISEASE” (priority 2010, published 2013).

Experiments:
[1] = tested on: rat model of gastroesophageal reflux disease; assay: Effect on esophagus lesion in rat model of gastroesophageal reflux disease; assay type: in vivo; conditions: 10 mg/kg oral in 0.5% CMC, 1 h before reflux induction; esophagus examined 6 h after operation; SD male rats
Source text: In order to determine the therapeutic effect on acute/chronic gastroesophageal reflux disease by the inventive Lonicerae Flos fraction or the compound represented by Formula 1 or 2, the method for measuring the therapeutic effect on gastroesophageal reflux disease (Nakamura K et al; Jpn. J. Pharmacol., 32(3), 445-456, 1982: Okabe S, et al; Jpn. J. Pharmacol., 69(4), 317-323, 1995) was applied to the present experiments.
In order to determine the therapeutic effect of the inventive Lonicerae Flos extract, the inventive Lonicerae Flos fraction, or the compound represented by Formula 1 or 2 in a rat model of gastroesophageal reflux disease, Spraugue-Dawley(SD)-based male rats aged 7 weeks were fasted for 24 hours and supplied with water in a sufficient amount. The rats were weighed, and were orally administered with omeprazole (Sigma-Aldrich) as a control drug and with Lonicerae Flos extract/fraction as a test drug, which are suspended in a 0.5% CMC (Carboxymethyl cellulose) solution, one hour before induction of reflux. For reflux induction, the abdomen of the rat was opened, and a pylorus region between stomach and duodenum was ligated. Then, a stomach-esophagus sphincter between esophagus and stomach was injured by longitudinal incision of 1 cm so that gastric acid can be flowed backward due to abnormal relaxation of the sphincter. Also, a transition zone between forestomach and glandular portion was ligated by thread, and the abdomen was sutured by cotton thread. 6 hours after the completion of the operation, inhalation anesthesia was performed, and the esophagus was extracted. Then, the size of an esophagus lesion and the extent of esophagitis were observed. In Table 1, the esophagus lesion inhibition ratio (%) of a test group administered with the inventive test material, with respect to a control group, is noted.

[2] = tested on: lipid peroxidation of esophagus tissue; assay: Lipid peroxide (malondialdehyde) of esophagus tissue in rat model of gastroesophageal reflux disease; assay type: in vivo; conditions: esophagus mucous membrane from Experimental Example 1 (10 mg/kg oral); malondialdehyde by TBA, 532 nm
Protocol: A test for finding out the inhibition of lipid peroxidation by the inventive Lonicerae Flos extract, the inventive Lonicerae Flos fraction, or a compound isolated from the fraction (3,5-di-O-caffeoylquinic acid or 4,5-di-O-caffeoylquinic acid) was carried out. the esophagus mucous membrane extracted in Experimental Example 1 was taken out, and added in 1 ml of tris-hydrochloric acid buffer solution (pH 7.0), followed by ultrasonic grinding. After centrifugation (600×g, 4° C.) for 5 minutes, 0.3 ml of supernatant was added with 0.9 ml of trichloroacetic acid (8%). Then, after centrifugation (10,000×g, 4° C.) for 5 minutes, 1 ml of supernatant was added with 0.25 ml of TBA(1%), and then with 2 ml of n-butanol. Then, after centrifugation (3,000×g , 4° C.) for 5 minutes, on 1 ml of butanol fraction, the absorbency was measured at 532 nm. As a reference material, malonaldehyde bis-dimethyl acetal was used. The result was expressed as nmol/mg protein, and protein quantitative analysis was carried out by Bradford assay.

[3] = tested on: TNF-α; assay: TNF-alpha level in esophagus tissue (ELISA), anti-inflammatory effect; assay type: in vivo, rat; conditions: 10 mg/kg; for inflammation inhibition ratio: calculated from TNF-alpha of test, control and normal groups; for TNF-alpha: esophagus tissue of reflux rats, normal group 120.3, control group 325.2
Protocol: On the Lonicerae Flos extract, the Lonicerae Flos fraction, or a compound isolated from the fraction (3,5-di-O-caffeoylquinic acid or 4,5-di-O-caffeoylquinic acid), having a therapeutic effect in a rat model of gastroesophageal reflux disease, in order to measure an anti-inflammatory effect within esophagus tissue, a level of Tumor necrosis factor-alpha(TNF-α) playing an important role in inflammatory disease mechanism was measured within esophagus tissue of a rat (Nippon Rinsho, 68(5), 819-822, 2010). As a kit for this measurement, rat TNF-α ELISA kit (Cat No:88-7340, eBioscience) was used. Each of esophagus tissues of all test groups, obtained from <Experimental Example 1>was introduced into homogenizing buffer (10×)(pH 7.4: 1.15% KCl, 50 mM Tris-HCl, 1 mM EDTA), followed by grinding by a homogenizer. Then, after centrifugation at 3,000 rpm or more for 10 minutes, the homogenized tissue liquid (supernatant) was separated, and then stored in a deep freezer for the use in the experiment. After all antigen-antibody reactions were completed, the absorbency was measured by ELISA Reader (BIORAD) at 450 nm, and then the amount of TNF-α in esophagus tissue was expressed by using a reference curve of absorbency. The inflammation inhibition ratio (%) of a test material was calculated by the following equation. Also, the anti-inflammatory effect by the Lonicerae Flos extract in a rat model of gastroesophageal reflux disease is noted in Table 2.
Inflammation inhibition ratio (%)=1−((test group-normal group)/(control group-normal group))×100

[4] = tested on: Hexosamine of esophagus mucous membrane; assay: Amount of hexosamine in esophagus tissue; assay type: in vivo, rat; conditions: esophagus tissue of reflux rats; for Hexosamine: 10 mg/kg, normal group 1101.3, control group 925.3; for content of hexosamine compared to that of a control group: doses as in Table 3
Protocol: (§1) On the Lonicerae Flos extract, the Lonicerae Flos fraction, or a compound isolated from the fraction (3,5-di-O-caffeoylquinic acid or 4,5-di-O-caffeoylquinic acid), having a therapeutic effect in a rat model of gastroesophageal reflux disease, the amounts of Hexosamine and Sialic acid constituting esophagus mucous membrane of esophagus tissue were measured.
Esophagus tissues of all test groups, obtained from <Experimental Example 1>, were immersed in ethanol, and then left in acetone for 2 days, and in ether for 1 day, followed by cleaning and drying. The test sample was weighed, added with 5 ml of 4N HCl solution, and hydrolyzed by being heated at 100° C. for 9 hours. Then, the resultant product was cooled at room temperature, and filtered. 0.5 ml of filtrate was added with 0.5 ml of 4N NaOH solution for neutralization, and then added with 1 ml of acetylacetone solution, followed by shaking. Then, the resultant product was heated at 100° C. for 20 minutes, and cooled, and then added with 5 ml of isoamylalcohol, followed by shaking for 2 minutes. After centrifugation at 3,000 rpm for 10 minutes, 2 ml of supernatant was collected. The supernatant was added with 0.5 ml of a color agent, and left for 15 minutes, and then its absorbency was measured at 530 nm. From a calibration curve obtained by using Glucosamine, the content of hexosamine was calculated.

[5] = tested on: Sialic acid of esophagus mucous membrane; assay: Amount of sialic acid in esophagus tissue; assay type: in vivo, rat; conditions: esophagus tissue of reflux rats; for Sialic acid: 10 mg/kg, normal group 125.2, control group 95.2; for content of sialic acid compared to that of a control group: doses as in Table 3
Protocol: as §1
Esophagus tissues of all test groups, obtained from <Experimental Example 1>, were immersed in ethanol, and then left in acetone for 2 days, and in ether for 1 day, followed by cleaning and drying. The test sample was weighed, added with 5 ml of 0.1N H2SO4 solution, and hydrolyzed by being heated at 80° C. for 1 hour. Then, the resultant product was cooled at room temperature, and filtered. 0.2 ml of filtrate was mixed with 0.1 ml of 0.2M periodate solution, and left at room temperature for 20 minutes. Then, the resultant solution was mixed with 1 ml of 10% arsenite solution until a yellowish brown color disappeared. 3 ml of 0.6% TBA solution was added thereto, followed by mixing. The resultant product was covered with a cap, and heated at 100° C. for 15 minutes, cooled, and left in a cool bath for 5 minutes, followed by cen- trifugation at 3,000 rpm for 10 minutes. A supernatant was collected, and its absorbency was measured at 549nm. From a calibration curve obtained by using N-acetylneuraminic acid, the content of Sialic acid was calculated.

[6] = tested on: SPF SD-based female/male rats; assay: Toxicity test of acute oral administration; assay type: in vivo; conditions: single oral dose 1.0 g/kg or 2.0 g/kg in 0.5% CMC; 5 female and 5 male SD rats; autopsy after 7 days; safe up to 2.0 g/kg
Protocol: By applying the Lonicerae Flos extract of Example 1, fractions of Examples 4 and 5, and 3,5-di-O-caffeoylquinic acid and 4,5-di-O-caffeoylquinic acid from Example 6, to SPF (specific pathogen free) SD-based female/male rats aged 6 weeks, an acute toxicity test was carried out.
Female 5 rats and male 5 rats of each test group were orally administered with the test materials from Examples in a dose of 1.0 g/kg or 2.0 g/kg. The test materials were suspended in 0.5% CMC (Carboxymethyl cellulose) solution before the administration. When the test materials were administered, mortality, clinical symptoms, and weight changes of animals were observed. 7 days after the administration, through autopsy, a hematologic examination and a blood chemical test were carried out. Then, with the naked eye, it was observed if there was abnormality in abdominal cavity organs and thoracic cage organs. […] Also, through weight measurement, a blood test, a blood chemical test, and autopsy results, an abnormal change was not observed.

Structure (SMILES)	esophagus lesion inhibition ratio with respect to control group [1] [%]	lipid peroxidation inhibiting ratio [2] [%]	inflammation inhibition ratio [3] [%]	TNF-alpha [3] [pg/mg Tissue weight]	Hexosamine [4] [μg/100 mg dry tissue]	content of hexosamine compared to that of a control group [4]	Sialic acid [5] [μg/100 mg dry tissue]	content of sialic acid compared to that of a control group [5]	acute oral toxicity (mortality, clinical symptoms, weight changes, blood tests, autopsy) [6]
O=C(/C=C/c1ccc(O)c(O)c1)OC1CC(O)(C(=O)O)CC(OC(=O)/C=C/c2ccc(O)c(O)c2)C1O (centres unmarked) [3,5-di-CQA, 3,5-di-O-caffeoylquinic acid]	90	49.1	87.8	145.3	1445.2	significantly increased	155.3	significantly increased	not showing toxicity
O=C(/C=C/c1ccc(O)c(O)c1)O[C@H]1[C@H](O)C[C@](O)(C(=O)O)C[C@H]1OC(=O)/C=C/c1ccc(O)c(O)c1 [4,5-di-CQA, 4,5-di-O-caffeoylquinic acid]	81	50.2	85.5	150.1	1380.2	significantly increased	148.1	significantly increased	–
COc1ccc2[nH]c([S+]([O-])Cc3ncc(C)c(OC)c3C)nc2c1 (centres unmarked) [omeprazole, reference compound]	83	53.9	80.5	160.2	1176.3	–	132.2	–	–
